Common to all, as to assay type: cell-based
What all share (design): dose or concentration left out as unconfirmed

Test [1] deals with prostate tumor cell line DU-145. In words: Viability assay, Trypan blue exclusion, prostate tumor cell line DU-145. The settings on record: for cytotoxicity: Homo sapiens, DU-145, 96 hours, read-out: percent cell death (% Death), DU145; for percent cell death (% Death), DU145: 96 hours. As to the method:
(§1) The effect of the sulfones on normal fibroblasts and on tumor cells of prostate, colon, lung and breast origin was examined utilizing the following cell lines: prostate tumor cell line DU-145; colorectal carcinoma cell line DLD-1; non-small cell lung carcinoma cell line H157; and breast tumor cell line BT-20. BT-20 is an estrogen-unresponsive cell line. NIH/3T3 and HFL are normal murine and human fibroblasts, respectively. BT-20, DLD-1 and H157 were grown in Dulbecco's modified Eagle's medium (DMEM) containing 10% fetal bovine serum supplemented with penicillin and streptomycin. DU145 was cultured in RPMI with 10% fetal bovine serum containing penicillin and streptomycin. NIH3T3 and HFL cells were grown in DMEM containing 10% calf serum supplemented with penicillin and streptomycin. All cell cultures were maintained at 37° C. in a humidified atmosphere of 5% CO2.
(§2) Cells were treated with test compound […] concentration and cell viability was determined after 96 hours by the Trypan blue exclusion method. Activity for each compound is reported as a range of cell induced death (% Death) with the lowest activity in the range of 5-10%.

Test [2] deals with colorectal carcinoma cell line DLD-1. In words: Viability assay, Trypan blue exclusion, colorectal carcinoma cell line DLD-1. The following applies: for cytotoxicity: Homo sapiens, DLD-1, 96 hours, read-out: percent cell death (% Death), DLD-1; for percent cell death (% Death), DLD-1: 96 hours. As to the method: as §1, §2
For test [3], the system named is non-small cell lung carcinoma cell line H157. In words: Viability assay, Trypan blue exclusion, non-small cell lung carcinoma cell line H157. The following applies: for cytotoxicity: Homo sapiens, NCI-H157, 96 hours, read-out: percent cell death (% Death), H157; for percent cell death (% Death), H157: 96 hours. The protocol:
as §1, §2

For test [4], the system named is breast tumor cell line BT-20. The test can be described thus: Viability assay, Trypan blue exclusion, breast tumor cell line BT-20. The following applies: for cytotoxicity: Homo sapiens, BT-20, 96 hours, read-out: percent cell death (% Death), BT20; for percent cell death (% Death), BT20: 96 hours. The protocol:
as §1, §2

`O=S(=O)(/C=C/c1ccoc1)Cc1ccc(Br)cc1` [Example 43, (E)-3-Furanethenyl-4-bromobenzylsulfone]: the cytotoxicity in test [1], in test [2], in test [3] and in test [4] was more than 80% throughout.

For `O=S(=O)(/C=C/c1ccsc1)Cc1ccc(Cl)cc1Cl` [Example 29, (E)-3-Thiopheneethenyl-2,4-dichlorobenzylsulfone], the cytotoxicity in test [1], in test [2], in test [3] and in test [4] was 50 to 60% each time.

As to `O=S(=O)(/C=C/c1ccsc1)Cc1ccc(I)cc1` [Example 25, (E)-3-Thiopheneethenyl-4-iodobenzylsulfone], the cytotoxicity in test [1], in test [2], in test [3] and in test [4] was 10 to 15% each time.

For `O=S(=O)(/C=C/c1cc(Br)cs1)Cc1ccc(Br)cc1` [Example 15, (E)-4-Bromo-2-thiopheneethenyl-4-bromobenzylsulfone], the cytotoxicity in test [1], in test [2], in test [3] and in test [4] was 5 to 10% in each case.

As to `O=S(=O)(/C=C/c1cccc2ccccc12)Cc1ccc(Cl)cc1` [Example 64, (E)-1-Naphthaleneethenyl-4-chlorobenzylsulfone], the cytotoxicity in test [1], in test [2], in test [3] and in test [4] was 10 to 15% each time.

In the case of `COc1ccc(CS(=O)(=O)/C=C/c2ccsc2)cc1` [Example 27, (E)-3-Thiopheneethenyl-4-methoxybenzylsulfone], the cytotoxicity in test [1], in test [2], in test [3] and in test [4] was 50 to 60% each time.

Regarding `O=S1(=O)C=CC(/C=C/S(=O)(=O)Cc2ccc(F)cc2)=C1` [Example 33, (E)-3-Thiophene-1,1-dioxoethenyl-4-fluorobenzylsulfone], in test [1], the “percent cell death (% Death), DU145” value is recorded as “+ ((+)=5-10%)”. Besides, the “percent cell death (% Death), DLD-1” value in test [2] is on record as “+ ((+)=5-10%)”. In test [3], the “percent cell death (% Death), H157” value is given as “+ ((+)=5-10%)”. Besides, the “percent cell death (% Death), BT20” value in test [4] is listed as “+ ((+)=5-10%)”.

Regarding `O=S(=O)(/C=C/c1cccs1)Cc1ccc(F)cc1` [Example 10, (E)-2-Thiopheneethenyl-4-fluorobenzylsulfone], the cytotoxicity in test [1], in test [2], in test [3] and in test [4] was 5 to 10% throughout.

Consider `COc1ccc(CS(=O)(=O)/C=C/c2ccoc2)cc1` [Example 46, (E)-3-Furanethenyl-4-methoxybenzylsulfone], for which the cytotoxicity in test [1], in test [2], in test [3] and in test [4] was more than 80% each time.

As for `O=S(=O)(/C=C/c1ccccn1)Cc1ccc(F)cc1` [Example 1, (E)-2-Pyridineethenyl-4-fluorobenzylsulfone], the cytotoxicity in test [1], in test [2], in test [3] and in test [4] was 5 to 10% throughout.

As to `O=S(=O)(/C=C/c1ccsc1)Cc1ccc(Cl)c(Cl)c1` [Example 30, (E)-3-Thiopheneethenyl-3,4-dichlorobenzylsulfone], the cytotoxicity in test [1], in test [2], in test [3] and in test [4] was 5 to 10% in each case.

For the compound `O=S(=O)(/C=C/c1ccncc1)Cc1ccc(Br)cc1` [Example 9, (E)-4-Pyridineethenyl-4-bromobenzylsulfone], the cytotoxicity in test [1], in test [2], in test [3] and in test [4] was 5 to 10% throughout.

With `O=[N+]([O-])c1cc(/C=C/S(=O)(=O)Cc2ccc(I)cc2)cs1` [Example 56, (E)-2-Nitro-4-thiopheneethenyl-4-iodobenzylsulfone], the cytotoxicity in test [1], in test [2], in test [3] and in test [4] was 5 to 10% each time.

For the compound `O=[N+]([O-])c1ccc(/C=C/S(=O)(=O)Cc2cccc3ccccc23)cc1` [Example 73, (E)-4-Nitrostyryl-1-(naphthylmethyl)sulfone], the cytotoxicity lay within 5 to 10% in test [1], 5 to 10% in test [2], 10 to 15% in test [3] and 5 to 10% in test [4].

With `O=S(=O)(/C=C/c1ccoc1)Cc1ccc(C(F)(F)F)cc1` [Example 47, (E)-3-Furanethenyl-4-trifluoromethylbenzylsulfone], in test [1], the “percent cell death (% Death), DU145” value was “++++ ((++++)=50-60%)”. For the same compound, in test [2], the “percent cell death (% Death), DLD-1” value is reported as “++++ ((++++)=50-60%)”. In addition, the “percent cell death (% Death), H157” value in test [3] was “++++ ((++++)=50-60%)”. Besides, the “percent cell death (% Death), BT20” value in test [4] is given as “++++ ((++++)=50-60%)”.

In the case of `O=S(=O)(/C=C/c1ccc(Cl)cc1)Cc1cccc2ccccc12` [Example 69, (E)-4-Chlorostyryl-1-(naphthylmethyl)sulfone], the cytotoxicity in test [1], in test [2], in test [3] and in test [4] was 5 to 10% in each case.

In the case of `O=S1(=O)C=CC(/C=C/S(=O)(=O)Cc2ccc(Cl)cc2Cl)=C1` [Example 37, (E)-3-Thiophene-1,1-dioxoethenyl-2,4-dichlorobenzylsulfone], the “percent cell death (% Death), DU145” value in test [1] is “++ ((++)=10-15%)”. For the same compound, the “percent cell death (% Death), DLD-1” value in test [2] is “++ ((++)=10-15%)”. In addition, in test [3], the “percent cell death (% Death), H157” value is “++ ((++)=10-15%)”. The “percent cell death (% Death), BT20” value in test [4] is listed as “++ ((++)=10-15%)”.

Regarding `O=S(=O)(/C=C/c1ccoc1)Cc1ccc(Cl)c(Cl)c1` [Example 49, (E)-3-Furanethenyl-3,4-dichlorobenzylsulfone], the cytotoxicity in test [1] was more than 80%; in test [2] it was 50 to 60%; in test [3], 50 to 60%; in test [4], 50 to 60%.

For the compound `O=S(=O)(/C=C/c1cccc2ccccc12)Cc1ccc(F)cc1` [Example 62, (E)-1-Naphthaleneethenyl-4-fluorobenzylsulfone], the cytotoxicity in test [1], in test [2], in test [3] and in test [4] was 5 to 10% in each case.

Turning to `N#Cc1ccc(CS(=O)(=O)/C=C/c2ccsc2)cc1` [Example 31, (E)-3-Thiopheneethenyl-4-cyanobenzylsulfone], the cytotoxicity in test [1], in test [2], in test [3] and in test [4] was 5 to 10% throughout.

For the compound `N#Cc1ccc(CS(=O)(=O)/C=C/c2ccoc2)cc1` [Example 50, (E)-3-Furanethenyl-4-cyanobenzylsulfone], the cytotoxicity in test [1], in test [2], in test [3] and in test [4] was 5 to 10% throughout.

`O=S(=O)(/C=C/c1cc(Br)cs1)Cc1ccc(Cl)cc1` [Example 14, (E)-4-Bromo-2-thiopheneethenyl-4-chlorobenzylsulfone]: the cytotoxicity in test [1], in test [2], in test [3] and in test [4] was 5 to 10% throughout.

In the case of `O=[N+]([O-])c1ccc(CS(=O)(=O)/C=C/c2ccsc2)cc1` [Example 32, (E)-3-Thiopheneethenyl4-nitrobenzylsulfone], the cytotoxicity in test [1], in test [2], in test [3] and in test [4] was 5 to 10% in each case.

`O=S(=O)(/C=C/c1ccc(Br)s1)Cc1ccc(Cl)cc1` [Example 17, (E)-5-Bromo-2-thiopheneethenyl-4-chlorobenzylsulfone]: the cytotoxicity in test [1], in test [2], in test [3] and in test [4] was 5 to 10% in each case.

With `Cc1ccc(CS(=O)(=O)/C=C/c2ccsc2)cc1` [Example 26, (E)-3-Thiopheneethenyl-4-methylbenzylsulfone], the cytotoxicity in test [1], in test [2], in test [3] and in test [4] was 5 to 10% in each case.

Values taken from US6599932B1, “Alpha, beta-unsaturated sulfones for treating proliferative disorders” (Temple University-Of The Commonwealth System of Higher …, priority 2000, dated 2003).
